Measurements published in US12583826B2, “[(1,5-diphenyl-1H-1,2,4-triazol-3-yl)oxy]acetic acid derivatives and salts thereof, crop protection compositions comprising them, methods for producing them and use thereof as safeners” (Bayer Aktiengesellschaft, priority 2019, dated 2026).

Columns and labels:
Assay type in all cases: in vivo
[1] = tested on: summer barley (HORVS; cv. Montoya); assay: Relative action (efficacy code): reduction of damage by mesosulfuron-methyl on summer barley; parameters: key: 0: no reduction in damage (appearance corresponding to the herbicide control); 1: slight reduction in damage; 2: distinct reduction in damage; 3: significant reduction in damage; 4: complete reduction in damage (appearance corresponding to the untreated control); conditions: then mesosulfuron-methyl 40-60 g/ha, visual, 9-13 days after application
Method: 2.4 Relative Action of Selected Compounds of the Invention Using the Example of Reduction of Damage by Mesosulfuron-Methyl on Summer Barley (HORVS) The seeds of the crop plants to be treated are laid out in sandy loam in plastic pots (diameter ˜4 cm), covered with soil and grown in a greenhouse under good conditions for germination and growth. The trial plants were treated at the early leaf stage (BBCH10—BBCH12). In the course of this, the inventive compounds of the general formula (I) formulated in the form of wettable powders (WP) were sprayed onto the above-ground parts of the plants as an aqueous suspension with a water application rate corresponding to 800 l/ha with addition of wetting agent (e.g. 0.2% Genapol-LRO or 0.2% Mero) in the specified dose. This was followed by the application of the herbicide. For this purpose, mesosulfuron-methyl, formulated in the form of water-dispersible granules (WG), was sprayed onto the above-ground parts of the plants in the form of an aqueous dispersion with a water application rate corresponding to 800 l/ha with addition of wetting agent (e.g. 0.2% Genapol-LRC) or 1 l/ha Biopower) in a dose of 40-60 g/ha. The dose of the herbicide was chosen here such that it causes visually apparent damage (min. 30%, max. 75%) compared to untreated crop plants at the evaluation time on a control group of crop plants without safener treatment that were included in the same trial. After application, the plants were cultivated under good growth conditions in a greenhouse. 9-13 days after application, the efficacy of the test compounds was assessed visually. For this purpose, the appearance of the plants treated with the test compound and herbicide was compared to the corresponding herbicide controls (without safener; with clearly visible damage) and the untreated controls (without damage). The damage-reducing effect of the test compounds was expressed here separately for 2 repeats in graded efficacy codes according to the following scheme: • 0: no reduction in damage (appearance corresponding to the herbicide control) • 1: slight reduction in damage • 2: distinct reduction in damage • 3: significant reduction in damage • 4: complete reduction in damage (appearance corresponding to the untreated control) The trials show clear efficacy of the substances of the invention with regard to the reduction in damage to the summer barley crop plant (HORVS; cv. Montoya) caused by the herbicide mesosulfuron-methyl: […]

[2] = tested on: summer wheat (TRZAS; cv. Triso); assay: Relative action (efficacy code): reduction of damage by mesosulfuron-methyl on summer wheat; parameters: key: 0: no reduction in damage (appearance corresponding to the herbicide control); 1: slight reduction in damage; 2: distinct reduction in damage; 3: significant reduction in damage; 4: complete reduction in damage (appearance corresponding to the untreated control); conditions: then mesosulfuron-methyl 40-60 g/ha, visual, 9-13 days after application
Method: 2.3 Relative Action of Selected Compounds of the Invention Using the Example of Reduction of Damage by Mesosulfuron-Methyl on Summer Wheat (TRZAS) The seeds of the crop plants to be treated are laid out in sandy loam in plastic pots (diameter ˜4 cm), covered with soil and grown in a greenhouse under good conditions for germination and growth. The trial plants were treated at the early leaf stage (BBCH10—BBCH12). In the course of this, the inventive compounds of the general formula (I) formulated in the form of wettable powders (WP) were sprayed onto the above-ground parts of the plants as an aqueous suspension with a water application rate corresponding to 800 l/ha with addition of wetting agent (e.g. 0.2% Genapol-LRO or 0.2% Mero) in the specified dose. This was followed by the application of the herbicide. For this purpose, mesosulfuron-methyl, formulated in the form of water-dispersible granules (WG), was sprayed onto the above-ground parts of the plants in the form of an aqueous dispersion with a water application rate corresponding to 800 l/ha with addition of wetting agent (e.g. 0.2% Genapol-LRO or 1 l/ha Biopower) in a dose of 40-60 g/ha. The dose of the herbicide was chosen here such that it causes visually apparent damage (min. 30%, max. 75%) compared to untreated crop plants at the evaluation time on a control group of crop plants without safener treatment that were included in the same trial. After application, the plants were cultivated under good growth conditions in a greenhouse. 9-13 days after application, the efficacy of the test compounds was assessed visually. For this purpose, the appearance of the plants treated with the test compound and herbicide was compared to the corresponding herbicide controls (without safener; with clearly visible damage) and the untreated controls (without damage). The damage-reducing effect of the test compounds was expressed here in graded efficacy codes according to the following scheme: • 0: no reduction in damage (appearance corresponding to the herbicide control) • 1: slight reduction in damage • 2: distinct reduction in damage • 3: significant reduction in damage • 4: complete reduction in damage (appearance corresponding to the untreated control) The trials show clear efficacy of the substances of the invention with regard to the reduction in damage to the summer wheat crop plant (TRZAS; cv. Triso) caused by the herbicide mesosulfuron-methyl: […]

[3] = tested on: summer wheat (TRZAS; cv. Triso); assay: Absolute action: reduction of damage by mesosulfuron-methyl on summer wheat, greenhouse post-emergence; conditions: for Absolute reduction in herbicide damage (damage without safener minus damage with safener): mesosulfuron-methyl 20 g/ha; for Herbicide damage with compound of the formula (I): then mesosulfuron-methyl 20 g/ha, visual 0-100% scale, 14-21 days after application
Method: (§1) 2.1 Absolute Action of Selected Compounds of the Invention Using the Example of Reduction of Damage by Mesosulfuron-Methyl on Summer Wheat (TRZAS) The seeds of the crop plants to be treated are laid out in sandy loam in wood fiber or plastic pots (diameter ˜4 cm), covered with soil and grow in a greenhouse under good conditions for germination and growth. The trial plants were treated at the early leaf stage (BBCH10—BBCH12). In the course of this, the inventive compounds of the general formula (I) formulated in the form of wettable powders (WP) were sprayed onto the above-ground parts of the plants as an aqueous suspension with a water application rate corresponding to 800 l/ha with addition of wetting agent (e.g. 0.2% agrotin) in the specified dose. This was followed by the application of the herbicide. For this purpose, mesosulfuron-methyl, formulated in the form of water-dispersible granules (WG), was sprayed onto the above-ground parts of the plants in the form of an aqueous dispersion with a water application rate corresponding to 800 l/ha with addition of wetting agent (e.g. 0.2% agrotin) in a dose of 20 g/ha. The dose of the herbicide was chosen here such that it causes visually apparent damage (min. 30%, max. 75%) compared to untreated crop plants at the evaluation time on a control group of crop plants without safener treatment that were included in the same trial. After application, the plants were cultivated under good growth conditions in a greenhouse. The damage was visually assessed 14-21 days after application. The damage effect was assessed visually on a scale of 0-100% by comparison with untreated control plants, and averaged over 2-3 repeats per treatment. Examples: • 0%=no noticeable effect compared to the untreated plant • 20%=the treated plant population has 20% damage compared to the untreated control population (e.g. growth height, leaf damage, etc.) • 100%=treated plants completely damaged/killed.

[4] = tested on: summer barley (HORVS; cv. Montoya); assay: Absolute action: reduction of damage by mesosulfuron-methyl on summer barley, greenhouse post-emergence; conditions: for Absolute reduction in damage (difference): mesosulfuron-methyl 20 g/ha, damage without minus with safener; for Herbicide damage with compound of the formula (I) (%): then mesosulfuron-methyl 20 g/ha, visual 0-100% scale, 14-21 days after application
Method: as §1, with “2.2 Absolute Action” for “2.1 Absolute Action”, “on Summer Barley (HORVS) The seeds” for “on Summer Wheat (TRZAS) The seeds”, “treated are aid out in” for “treated are laid out in”, “soil and grown in a” for “soil and grow in a”, “leaf stage (BBCE10-BBCH12). In the” for “leaf stage (BBCH10—BBCH12). In the”, “control population (e.g.: growth height,” for “control population (e.g. growth height,”

[5] = safener dose 100 (unit not given)
[6] = safener dose 500 (unit not given)

SMILES | Efficacy of the safener (efficacy code) ([1]; safener 100 g/ha) | Efficacy of the safener (efficacy code) ([1]; safener 500 g/ha) | Efficacy of the safener (efficacy code) [2, 5] | Efficacy of the safener (efficacy code) [2, 6] | also measured
O=C(O)COc1nc(-c2ccccc2)n(-c2c(F)cccc2F)n1 [I.3-43] | 2 | 2 | 2 | 2 | 
COC(=O)COc1nc(-c2ccc(F)cc2F)n(-c2ccc(Cl)cc2)n1 [I.40-7, Methyl {[1-(4-chlorophenyl)-5-(2,4-difluorophenyl)-1H-1,2,4-triazol-3-yl]oxy}acetate] | 2 | 4 | 4 | 4 | 
COC(=O)COc1nc(-c2ccc(F)cc2F)n(-c2ccc(F)cc2Cl)n1 [I.40-48] | 2 |  | 2 |  | 
COC(=O)COc1nc(-c2ccc(F)cc2F)n(-c2ccc(Cl)cc2F)n1 [I.40-49] | 4 | 4 | 4 | 4 | 
CCOC(=O)COc1nc(-c2ccc(F)cc2F)n(-c2ccc(Cl)cc2F)n1 [I.41-49] | 2 |  | 2 |  | 
O=C(O)COc1nc(-c2ccc(F)cc2F)n(-c2c(F)cccc2F)n1 [I.42-43] | 2 | 2 | 2 | 2 | 
O=C(O)COc1nc(-c2ccc(F)cc2F)n(-c2ccc(Cl)cc2F)n1 [I.42-49] | 2 | 3 | 2 | 2 | 
O=C(O)COc1nc(-c2ccc(Cl)cc2F)n(-c2c(F)cccc2F)n1 [I.48-43] |  | 2 |  | 2 | 
CCOC(=O)COc1nc(-c2cc(F)cc(F)c2)n(-c2ccc(F)cc2)n1 [I.53-4] |  |  |  |  | Absolute reduction in herbicide damage (damage without safener minus damage with safener) ([3]; safener 1000 g/ha): 20%; Herbicide damage with compound of the formula (I) ([3]; safener 1000 g/ha): 23%; Absolute reduction in damage (difference) ([4]; safener 250 g a.i./ha): 27%; Herbicide damage with compound of the formula (I) (%) ([4]; safener 250 g a.i./ha): 33%
CCOC(=O)COc1nc(-c2cc(F)cc(F)c2)n(-c2ccc(F)cc2F)n1 [I.53-38] |  |  |  |  | Absolute reduction in herbicide damage (damage without safener minus damage with safener) ([3]; safener 1000 g/ha): 20%; Herbicide damage with compound of the formula (I) ([3]; safener 1000 g/ha): 23%; Absolute reduction in damage (difference) ([4]; safener 250 g a.i./ha): 30%; Herbicide damage with compound of the formula (I) (%) ([4]; safener 250 g a.i./ha): 30%; Absolute reduction in damage (difference) ([4]; safener 1000 g a.i./ha): 40%; Herbicide damage with compound of the formula (I) (%) ([4]; safener 1000 g a.i./ha): 20%
O=C(O)COc1nc(-c2cc(F)cc(F)c2)n(-c2ccc(F)cc2)n1 [I.54-4] |  |  |  |  | Absolute reduction in herbicide damage (damage without safener minus damage with safener) ([3]; safener 250 g/ha): 23%; Herbicide damage with compound of the formula (I) ([3]; safener 250 g/ha): 20%; Absolute reduction in damage (difference) ([4]; safener 250 g a.i./ha): 23%; Herbicide damage with compound of the formula (I) (%) ([4]; safener 250 g a.i./ha): 37%
COC(=O)COc1nc(-c2c(F)cccc2F)n(-c2ccc(Cl)cc2F)n1 [I.55-49] | 2 | 2 | 2 | 2 | 
O=C(O)COc1nc(-c2c(F)cccc2F)n(-c2c(F)cccc2F)n1 [I.57-43] |  | 2 |  | 2 | 
O=C(O)COc1nc(-c2c(F)cccc2F)n(-c2ccc(Cl)cc2F)n1 [I.57-49] | 2 | 2 |  |  | 
